The subject of test [1] is H2122 KRAS G12C mt NSCLC xenograft. Briefly: Xenograft efficacy study, H2122. In kind it is in vivo, Balb/c nude mice. The settings on record: for effect on AMG-510 efficacy (change in tumor volume): in combination with AMG-510, H2122 tumor bearing mice, 10 days; for mice with tumor regression, combination with sotorasib: in combination with sotorasib, 10 days of treatment; for augmentation of tumor growth inhibition by sotorasib: 0.3 mg/kg QD in combination with sotorasib 30 mg/kg QD. As for the experimental part:
(§1) KRAS G12C mutant NSCLC H2122 and H358 tumor cells and Balb/c nude mice were used. Tumor challenge was initiated by subcutaneous inoculation of 1×10^7 tumor cell suspensions into the right flank of recipient mice. Tumor sizes (mm^3) and body weights were measured 3 times per week for the duration of the study. At the time of routine monitoring, the animals were checked for any effects of tumor growth and treatments on normal behavior such as mobility, food and water consumption (by looking only), and body weight gain/loss, eye/hair matting and any other abnormal effect.
(§2) For efficacy studies, once tumors reached an average volume of 150-200 mm^3, mice were sorted into 10 groups (n=10): vehicle 1 (5% DMSO, 10% HPCD in sterile water)+vehicle 2 (2% HPMC, 1% Tween 80 in sterile water), VS-6766 in vehicle 1 (0.3 mg/kg PO QD, 28 days)+vehicle 2, AMG-510 in vehicle 2 (30 mg/kg PO QD, 28 days)+vehicle 1, VS-6766+AMG-510, VS-4718 (0.5% CMC-Na, 0.1% Tween 80 in sterile water) (50 mg/kg PO BID, 28 days)+vehicle 2, VS-4718+VS-6766, VS-4718+AMG-510, VS-4718+AMG-510+VS-6766, trametinib (0.3 mg/kg PO QD, 28 days) (0.5% hydroxypropylmethylcellulose and 0.2% Tween-80 in distilled water (pH 8.0))+vehicle 2, and trametinib+AMG-510. Mice were euthanized when tumor volumes>2,000 mm^3.

For test [2], the system named is H358 KRAS G12C mt NSCLC xenograft. As to the kind of experiment: Xenograft efficacy study, H358. The format is in vivo, Balb/c nude mice. The settings on record: in combination with G12Ci (AMG-510); 21 days. As for the experimental part:
as §1, §2

Test [3] has as its system pMEK and pERK in H2122 KRAS G12C NSCLC xenograft tumors. As to the kind of experiment: Pharmacodynamic study in H2122 xenograft tumors (pMEK, pERK western blot). The format is in vivo, Balb/c nude mice. The conditions noted are these: VS-6766 0.3 mg/kg + AMG-510 30 mg/kg, oral, daily for 5 days; tumors harvested 2, 8 and 24 hours after final dose. As for the experimental part: as §1
On the technique in general: In western blotting, separated proteins are transferred to a membrane and probed.

Test [4] deals with KRAS G12C mt NSCLC and colorectal cancer cell lines (H2122, H358, H2030, H1373, SW837, SW1463). Briefly: 3D proliferation assay in vitro (CellTiter-Glo 3D, synergy analysis). The format is cell-based. The settings on record: 7 days treatment, panel of KRAS G12C mt NSCLC and CRC cell lines, Loewe model. As for the experimental part: KRAS G12C mutant NSCLC (H2122, H358, H2030, H1373) and colorectal cancer (CRC; SW837 and SW1463) were used. Briefly, 96-well plates were coated with 50 μL of Matrigel (100%) and incubated at 37° C. and 5% CO2 for 30 min in order for the Matrigel to solidify. Cells were seeded in 100 μL of 2% Matrigel containing medium. After an incubate overnight (17-22 hours) cells were treated with VS-6766 +/−G12C inhibitor +/−Defactinib for 7 days. Cell viability was measured using the cell viability CellTiter-Glo 3D assay. Combination effects were evaluated by comparing the averaged viability/inhibition to two different null reference models derived from the single agent activities. Bliss, Loewe and Highest Single Agent synergy analysis were performed to determine synergy scores.
(In general: ATP-based viability assays read luminescence as a measure of living cells.)

In test [5] the test system is RAS pathway signaling (pMEK, pERK, p-p90RSK). As to the kind of experiment: Western blot of RAS pathway signaling in KRAS G12C mt NSCLC cell lines. The format is cell-based. As for the experimental part:
KRAS G12C mutant NSCLC cells (H2122, H358, H1373 and SW1573) were seeded in 10-cm dishes. After an incubate overnight (17-22hrs) cells were treated with 100 nM VS-6766 +/−100 nM G12C inhibitor. 4 and 48 hours post compound treatment, cells were collected, and cell lysates prepared using RIPA buffer containing protease inhibitors. Western blot assays were run using antibodies for pMEK, MEK, pERK, ERK, p-p90RSK, p90RSK and actin.

Setting [6] is: 100 nM VS-6766 + 100 nM AMG-510, 4 and 48 hours.
The mark [7] stands for this setting: 100 nM VS-6766 + 100 nM MRTX849, 4 and 48 hours.

Results on 4 molecules are retold here after patent US20230103007A1, “COMBINATION THERAPY FOR TREATING ABNORMAL CELL GROWTH” (priority 2020, published 2023).

Turning to `CNC(=O)c1ccccc1Nc1cc(Nc2ccc(N3CCOCC3)cc2OC)ncc1C(F)(F)F` [FAK inhibitor], in test [1], the “effect on AMG-510 efficacy (change in tumor volume)” value was “potentiate” and the “mice with tumor regression, combination with sotorasib” value (from here on “mice with tumor regression”) is recorded as 4/10. The “effect on efficacy of G12Ci in H358 xenograft model” value in test [2] is given as “enhance”.

In the case of `CNS(=O)(=O)Nc1nccc(Cc2c(C)c3ccc(Oc4ncccn4)cc3oc2=O)c1F` [VS-6766], the “inhibition of pMEK and pERK in tumors, combination with sotorasib relative to sotorasib alone” value in test [3] is “improved inhibition”. Moreover, in test [1], the “augmentation of tumor growth inhibition by sotorasib” value was “augmented”; the “effect on AMG-510 efficacy (change in tumor volume)” value is given as “potentiate”; the “mice with tumor regression” value was 5/10. Also, the “mice with tumor reductions of >35%, triple combination” value in test [1] (triple combination of VS-6766, sotorasib and a FAK inhibitor) was 10/10. Further, in test [4], the “synergy in reducing viability, combination with adagrasib” value is “synergistic” and the “synergy in reducing viability, combination with sotorasib” value is “synergistic”. Moreover, in test [5] (setting [6]), the “depth and duration of inhibition of MEK/ERK signaling, added to AMG-510, relative to G12C inhibitor alone” value was “increases depth and duration of inhibition”; the “pERK inhibition by combination with AMG-510 versus AMG-510 alone” value was “better”. Moreover, in test [5] (setting [7]), the “depth and duration of inhibition of MEK/ERK signaling, added to MRTX849, relative to G12C inhibitor alone” value is “increases depth and duration of inhibition”; the “pERK inhibition by combination with MRTX849 versus MRTX849 alone” value was “better”. Also, the “suppression of RAS pathway signaling (pMEK, pERK, p-p90RSK) as a single agent” value in test [5] (single agent, 100 nM, 4 and 48 hours, KRAS-G12C NSCLC cell lines) was “effectively suppressed”. In addition, the “effect on efficacy of G12Ci in H358 xenograft model” value in test [2] was “enhance”.

Turning to `CNC(=O)c1ccc(Nc2ncc(C(F)(F)F)c(NCc3nccnc3N(C)S(C)(=O)=O)n2)cc1` [defactinib], in test [4], the “synergy in reducing viability, combination with adagrasib” value is “synergistic” and the “synergy in reducing viability, combination with sotorasib” value was “synergistic”.

Take `CC(=O)Nc1cccc(-n2c(=O)n(C3CC3)c(=O)c3c(Nc4ccc(I)cc4F)n(C)c(=O)c(C)c32)c1` [trametinib, reference compound]: in test [1], the “augmentation of tumor growth inhibition by sotorasib” value is recorded as “much less effective” and the “mice with tumor regression” value is reported as 1/10.
